Laboratory results from BigSolDB 2.1.

CCc1nc(N)nc(N)c1-c1ccc(Cl)cc1
solubility (mole fraction)
Settings | 278.15 K | 283.15 K | 288.15 K | 293.15 K | 298.15 K | 303.15 K | 308.15 K | 313.15 K | 318.15 K
in acetone | 0.0011 | 0.00125 | 0.00147 | 0.00171 | 0.0019 | 0.00215 | 0.00241 | 0.00272 | 0.0033
in acetonitrile | 9.12e-05 | 0.000108 | 0.000148 | 0.000198 | 0.00027 | 0.000383 | 0.000469 | 0.000596 | 0.000765
in ethanol | 0.000603 | 0.000809 | 0.000972 | 0.00109 | 0.00123 | 0.00147 | 0.00181 | 0.0022 | 0.00254
in ethyl acetate | 0.00141 | 0.00151 | 0.0017 | 0.00194 | 0.00218 | 0.00246 | 0.0029 | 0.00334 | 0.00389
in isobutanol | 0.000678 | 0.000904 | 0.0011 | 0.00125 | 0.0014 | 0.00167 | 0.00198 | 0.00238 | 0.00274
in isopropanol | 0.000234 | 0.000323 | 0.000456 | 0.00057 | 0.000709 | 0.000853 | 0.00104 | 0.00125 | 0.00152
in isopropyl acetate | 0.000583 | 0.000717 | 0.000861 | 0.00107 | 0.00129 | 0.00155 | 0.00185 | 0.00226 | 0.00259
in methanol | 0.000854 | 0.0011 | 0.00131 | 0.00151 | 0.00176 | 0.00203 | 0.00237 | 0.00278 | 0.00332
in methyl acetate | 0.000372 | 0.000482 | 0.000615 | 0.000811 | 0.00105 | 0.00127 | 0.00158 | 0.00186 | 0.0023
in n-butanol | 0.000802 | 0.000993 | 0.00124 | 0.00141 | 0.00164 | 0.00192 | 0.00227 | 0.00263 | 0.00317
in n-propanol | 0.000712 | 0.000936 | 0.00118 | 0.00135 | 0.00152 | 0.00179 | 0.00211 | 0.00252 | 0.00298
in n-propyl acetate | 0.000822 | 0.000952 | 0.00111 | 0.00136 | 0.00154 | 0.0018 | 0.0021 | 0.00243 | 0.00289
in sec-butanol | 0.000398 | 0.000554 | 0.000662 | 0.000824 | 0.00106 | 0.0013 | 0.00164 | 0.00198 | 0.00227
